The structures appear in SMILES notation.

The text below walks through data of patent US6280768A, “Berberine alkaloids as a treatment for chronic protozoally induced diarrhea” (PRM Pharmaceuticals, Inc., priority 1997, dated 2001).

For series [1] the following is noted: oral, high doses; cited from earlier work.
A further series concerns diarrhea. The experiment in a line: Prophylactic use of berberines in HIV infected patients (Example 7). The class given is in vivo, human. To be noted: low dose of Example 2, two months, 25 patients. Here is the method:
Twenty five (25) HIV infected patients, 18 years of age or older, not presenting with chronic diarrhea, are selected. Blood specimens are evaluated to confirm that each patient is HIV seropositive.
Each of the twenty five (25) patients receives a treatment with berberine according to the low dose of Example 2 for a period of two months.

The subject of another series is cryptosporidia. To be noted: cited from earlier work.
The test system of series [2] is microsporidia. Nature of the series: Protoberberines in a mouse animal model of microsporidial chronic diarrhea (Example 6). The class given is in vivo. To be noted: 52 mg/kg/day oral; for condition of the mice / diarrhea: after 10 days; for presence of microsporidia in intestinal biopsy: following therapy. How it is done: Ten mice suffering from chronic diarrhea caused by microsporidia are randomized into two groups of 5 mice. One group receives the protoberberine palmatine and the second group receives the protoberberine jatrorrhizine. The protoberberines are administered orally at a dose rate of 52 mg/kg/day for ten (10) days.

In series [3] the test system is microsporidia. Nature of the series: Protoberberines in a hamster animal model of microsporidial chronic diarrhea (Example 5). The class given is in vivo. To be noted: 52 mg/kg/day oral; for condition of the hamsters / diarrhea: after 10 days; for presence of microsporidia in intestinal biopsy: following therapy. How it is done:
Ten hamsters suffering from chronic diarrhea caused by microsporidia are randomized into two groups of 5 hamsters. One group receives the protoberberine palmatine and the second group receives the protoberberine dihydroberberine. The protoberberines are administered orally at a dose rate of 52 mg/kg/day for ten (10) days.

For `COc1ccc2cc3[n+](cc2c1OC)CCc1cc2c(cc1-3)OCO2` [berberine, 5,6-Dihydro-9,10-dimethoxybenzo[g]-1,3-benzodioxolo[5,6-a]quinolizinium], in series [1], the toxicity result is on record as “nontoxic at high doses”. In addition, in the series on diarrhea, the “tolerability / adverse reactions” value is “all of the patients tolerate the treatment well with no or minimal adverse reactions”.
Regarding `C[C@@H](O)[C@@H]1NC(=O)[C@H](CCCCN)NC(=O)[C@@H](Cc2c[nH]c3ccccc23)NC(=O)[C@H](Cc2ccccc2)NC(=O)[C@@H](NC(=O)[C@H](N)Cc2ccccc2)CSSC[C@@H](C(=O)N[C@H](CO)[C@@H](C)O)NC1=O` [octreotide], in the series with cryptosporidia (AIDS patients), the “control of gastrointestinal secretion” value is “control the voluminous gastrointestinal secretion”. Besides, the return of diarrhea result with cryptosporidia (following cessation of treatment) was “diarrhea promptly returns”.
Regarding `COc1cc2c(cc1O)CC[n+]1cc3c(OC)c(OC)ccc3cc1-2` [jatrorrhizine], in the series on microsporidia [2], the “condition of the mice” value is on record as “improved”, the diarrhea entry is “none of the mice have diarrhea” and the “presence of microsporidia in intestinal biopsy” value (“presence of microsporidia” below) is reported as “does not reveal the presence of microsporidia”.
`COc1cc2c(cc1OC)-c1cc3ccc(OC)c(OC)c3c[n+]1CC2` [palmatine]: in the series on microsporidia [3], the “condition of the hamsters” value is recorded as “improved”, the diarrhea result is on record as “none of the hamsters have diarrhea” and the “presence of microsporidia” value is on record as “does not reveal the presence of microsporidia”. For the same molecule, in the series on microsporidia [2], the “condition of the mice” value is “improved”, the diarrhea entry is given as “none of the mice have diarrhea” and the “presence of microsporidia” value was “does not reveal the presence of microsporidia”.
Regarding `COc1ccc2c(c1OC)CN1CCc3cc4c(cc3C1=C2)OCO4` [dihydroberberine], in the series with microsporidia [3], the “condition of the hamsters” value is listed as “improved”, the diarrhea result is on record as “none of the hamsters have diarrhea” and the “presence of microsporidia” value is on record as “does not reveal the presence of microsporidia”.
